According to patent US8604053B2, “TRPV1 antagonists” (AbbVie Inc., priority 2008, dated 2013):

What was measured:
Format in all cases: in vitro ADME
[1] = biological target: T1, CYP3A4 (Homo sapiens, UniProt P08684); assay: CYP3A4 inhibition assay; settings: human liver microsomes, substrate BZQ; for inhibition at 25 min, 2.2 µM: pH 7.4, probe 7-benzyloxyquiniline (BZQ), 50 μM final, read-out: CYP3A4 % inh @ 2.2 μM
T1 construct: human liver microsomes (BD Gentest, 450 μL; final concentration: 0.4 mg/mL); tissue BD Gentest; host or cells: human liver microsomes
Protocol: Luciferin-H was used as the substrate for CYP2C9; 3-[2-(N,N-diethyl-N-methylammonium)ethyl]-7-methoxy-4-methylcoumarin (AMMC) was used as the substrate for CYP2D6; 7-benzyloxyquiniline (BZQ) was used as the substrate for CYP3A4.
Pre-Incubation Mixture Preparation for CYP3A4: A pre-incubation mixture was prepared by combining 100 mM phosphate buffer (19.35 mL; pH 7.4), human liver microsomes (BD Gentest, 450 μL; final concentration: 0.4 mg/mL), and 10 mM nicotinamide adenine dinucleotide phosphate in 65.4 mM MgCl2 hexahydrate (225 μL; final concentration: 100 μM and 654 μM, respectively). To this was mixture was added a ‘regeneration’ mixture (225 μL) of 333 mM glucose-6-phosphate and 40 U/mL glucose-6-phosphate dehydrogenase in 5 mM sodium citrate (final concentration: 3.3 mM, 0.4 U/mL, and 0.05 mM, respectively).
Substrate Mixture Preparation for CYP3A4: To a solution of 100 mM phosphate buffer, (2.36 mL, pH 7.4) was added 30 mM BZQ in acetonitrile (40 μL; final solution concentration 0.5 mM, final assay concentration 50 μM).
(§1) CYP3A4 Inhibiton Assay: To each well in the assay plate containing varying concentrations of test compound or control compound in DMSO (10 μL), CYP3A4 Pre-Incubation Mixture (90 μL) was added to the wells and the assay plate was pre-incubated for 10 minutes at 37° C., with shaking or rocking. A pre-read of each well was performed at 405 nm and 535 nm extinction/emission. CYP3A4 Substrate Mixture (10 μL) was added to all wells and the assay plate was incubated for an additional […] at 37° C., with shaking or rocking. Final DMSO concentration was 1%. A post-read of each well was then performed at 405 nm and 535 nm extinction/emission.

[2] = biological target: T2, CYP2D6 (Homo sapiens, UniProt P10635); assay: in vitro; settings: microsomes; for inhibition at 25 min, 2.2 µM: human, pH 7.4
T2 construct: human liver microsomes (BD Gentest); tissue BD Gentest; host or cells: human liver microsomes
Protocol: (§2) Stock solutions of test compounds were assayed in 96-well format for their ability to inhibit CYP2C9, CYP2D6, or CYP3A4 mediated metabolism of test substrates. Luciferin-H was used as the substrate for CYP2C9; 3-[2-(N,N-diethyl-N-methylammonium)ethyl]-7-methoxy-4-methylcoumarin (AMMC) was used as the substrate for CYP2D6; 7-benzyloxyquiniline (BZQ) was used as the substrate for CYP3A4. For each subtype, positive controls (sulphaphenazole in the case of CYP2C9; quinidine in the case of CYP2D6, ketoconazole in the case of CYP3A4) were used to validate assay results run in duplicate.
(§3) Pre-Incubation Mixture Preparation for CYP2C9 and CYP2D6: A pre-incubation mixture was prepared by combining 100 mM phosphate buffer (9.12 mL; pH 7.4), human liver microsomes (BD Gentest, 240 itt; final concentration: 0.4 mg/mL), and 10 mM nicotinamide adenine dinucleotide phosphate in 65.4 mM MgCl2 hexahydrate (120 μL; final concentration: 125 μM and 818 μM, respectively). To this was mixture is added a ‘regeneration’ mixture (120 μL) of 333 mM glucose-6-phosphate and 40 U/mL glucose-6-phosphate dehydrogenase in 5 mM sodium citrate (final concentration: 4 mM, 0.5 U/mL, and 0.06 mM, respectively).
Substrate Mixture Preparation for CYP2D6: To a solution of 100 mM phosphate buffer, (2.80 mL, pH 7.4) was added 10 mM AMMC in acetonitrile (14 itt; final solution concentration 0.05 mM, final assay concentration 10 μM).
as §1, with “CYP2D6” for “CYP3A4”, “μL),” for “μL), CYP3A4”, “(40” for “(90”, “390” for “405”, “460” for “535”

[3] = biological target: T3, CYP2C9 (Homo sapiens, UniProt P11712); assay: CYP2C9 inhibition assay; settings: human liver microsomes, substrate Luciferin-H; for inhibition at 25 min, 2.2 µM: pH 7.4, probe Luciferin-H (100 μM final), read-out: CYP2C9 % inh @ 2.2 μM
T3 construct: human liver microsomes (BD Gentest); tissue BD Gentest; host or cells: human liver microsomes
Protocol: as §2, §3
Substrate Mixture Preparation for CYP2C9: To a solution of 25 mM phosphate buffer, (2.16 mL, pH 7.4) was added 5 mM Luciferin-H (Promega P450 Glo Assay V8792, 240 μL; final solution concentration 0.5 mM, final assay concentration 100 μM).
CYP2C9 Inhibiton Assay: To each well in the assay plate containing varying concentrations of test compound or control compound in DMSO (10 μL) Pre-Incubation Mixture (40 itt) was added to the wells and the assay plate was pre-incubated for 10 minutes at 37° C., with shaking or rocking. CYP2C9 Substrate Mixture (10 μL) was added to all wells and the assay plate was incubated for an additional 25 minutes at 37° C., with shaking or rocking. Final DMSO concentration was 1%. Luciferin-H detection reagent (Promega kit V8792, 50 μL) was added to all wells. The plate was then vortexed at ambient temperature for between 20 minutes and 2 hours, and the luminescence of each well was then read and recorded.

T3 sequence (P11712 whole entry): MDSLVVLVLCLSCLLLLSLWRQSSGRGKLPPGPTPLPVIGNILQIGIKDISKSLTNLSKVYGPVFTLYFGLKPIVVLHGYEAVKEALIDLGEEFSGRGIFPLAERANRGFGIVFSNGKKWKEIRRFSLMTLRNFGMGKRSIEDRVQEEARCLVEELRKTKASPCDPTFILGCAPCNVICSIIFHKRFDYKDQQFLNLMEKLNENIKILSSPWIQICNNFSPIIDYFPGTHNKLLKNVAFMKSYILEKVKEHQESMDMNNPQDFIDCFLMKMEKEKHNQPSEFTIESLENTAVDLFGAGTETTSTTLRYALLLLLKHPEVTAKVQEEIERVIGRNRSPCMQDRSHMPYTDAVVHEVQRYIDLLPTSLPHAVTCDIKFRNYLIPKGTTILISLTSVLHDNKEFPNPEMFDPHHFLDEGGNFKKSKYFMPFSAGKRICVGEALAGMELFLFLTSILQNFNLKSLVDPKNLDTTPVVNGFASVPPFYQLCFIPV
T1 sequence (P08684 whole entry): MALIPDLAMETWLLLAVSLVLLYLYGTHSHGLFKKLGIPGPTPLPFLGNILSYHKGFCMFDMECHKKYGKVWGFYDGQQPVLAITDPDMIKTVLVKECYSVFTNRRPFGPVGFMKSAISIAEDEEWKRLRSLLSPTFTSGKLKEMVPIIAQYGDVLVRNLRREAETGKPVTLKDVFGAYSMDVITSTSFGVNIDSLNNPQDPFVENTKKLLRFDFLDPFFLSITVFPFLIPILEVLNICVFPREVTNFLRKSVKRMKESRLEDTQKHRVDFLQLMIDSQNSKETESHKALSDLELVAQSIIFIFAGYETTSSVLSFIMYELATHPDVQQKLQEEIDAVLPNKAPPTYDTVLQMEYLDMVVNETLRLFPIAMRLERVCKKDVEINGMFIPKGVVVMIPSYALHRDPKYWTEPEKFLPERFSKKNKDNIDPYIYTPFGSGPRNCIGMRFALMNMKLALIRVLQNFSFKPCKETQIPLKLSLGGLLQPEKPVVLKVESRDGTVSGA
T2 sequence (P10635 whole entry): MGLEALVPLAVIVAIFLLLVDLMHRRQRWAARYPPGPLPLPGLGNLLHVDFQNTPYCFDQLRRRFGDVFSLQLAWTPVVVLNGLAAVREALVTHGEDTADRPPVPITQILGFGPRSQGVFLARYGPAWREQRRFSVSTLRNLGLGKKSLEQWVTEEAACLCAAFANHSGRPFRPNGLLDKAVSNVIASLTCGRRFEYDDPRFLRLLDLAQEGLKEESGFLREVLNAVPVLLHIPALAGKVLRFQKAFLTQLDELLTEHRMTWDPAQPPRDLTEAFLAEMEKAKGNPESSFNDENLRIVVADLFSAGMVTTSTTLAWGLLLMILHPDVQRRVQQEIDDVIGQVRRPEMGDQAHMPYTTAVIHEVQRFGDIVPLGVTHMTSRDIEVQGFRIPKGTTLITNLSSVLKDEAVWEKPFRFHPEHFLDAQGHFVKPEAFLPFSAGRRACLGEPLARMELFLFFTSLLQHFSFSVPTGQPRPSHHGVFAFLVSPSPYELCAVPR

CYP3A4 % inh @ 2.2 μM [1] [%] | CYP2D6 % inh @ 2.2 μM) [2] [%] | CYP2C9 % inh @ 2.2 μM [3] [%] | Compound | inhibition at 25 min, 2.2 µM [1] [%] | inhibition at 25 min, 2.2 µM [2] [%] | inhibition at 25 min, 2.2 µM [3] [%]
– | – | – | CCC1(CC)C[C@@H](NC(=O)Nc2cccc3cnc(C)cc23)c2ccc(Cl)cc2O1 [Example 69, N-[(4R)-7-chloro-2,2-diethyl-3,4-dihydro-2H-chromen-4-yl]-N′-(3-methylisoquinolin-5-yl)urea] | 0 | 0 | 5.3
– | – | – | Cc1cc2c(NC(=O)N[C@@H]3CCOc4c(OC(F)(F)F)cccc43)cccc2cn1 [Example 66, N-(3-methylisoquinolin-5-yl)-N′-[(4R)-8-(trifluoromethoxy)-3,4-dihydro-2H-chromen-4-yl]urea] | 0 | 9.5 | 4.5
– | – | – | Cc1cc2c(NC(=O)N[C@@H]3C[C@](C)(CF)Oc4cc(Cl)ccc43)cccc2cn1 (single isomer, unassigned) [Example 121] | 23 | 8 | 15
– | – | – | Cc1cc2c(NC(=O)N[C@@H]3C[C@@](C)(CF)Oc4cc(Cl)ccc43)cccc2cn1 (single isomer, unassigned) [Example 122] | 20 | 5 | 20
0 | 0.87 | 0.36 | N-[(4R)-7-fluoro-2,2,8-trimethyl-3,4-dihydro-2H-chromen-4-yl]-N-(3-methylisoquinolin-5-yl)urea [Example 111] | – | – | –
– | – | – | Cc1cc2c(NC(=O)N[C@@H]3CC(C)(C)Oc4cc(Cl)ccc43)cccc2cn1 [Example 97, N-[(4R)-7-chloro-2,2-dimethyl-3,4-dihydro-2H-chromen-4-yl]-N′-(3-methylisoquinolin-5-yl)urea] | 0 | 19 | 17
– | – | – | Cc1cc2c(NC(=O)N[C@@H]3CC(CF)(CF)Oc4cc(Br)ccc43)cccc2cn1 [Example 102, N-[(4R)-7-bromo-2,2-bis(fluoromethyl)-3,4-dihydro-2H-chromen-4-yl]-N′-(3-methylisoquinolin-5-yl)urea] | – | 20 | 13
– | – | – | CCC1(CC)C[C@@H](NC(=O)Nc2cccc3cnccc23)c2cc(F)ccc2O1 [Example 28, N-[(4R)-2,2-diethyl-6-fluoro-3,4-dihydro-2H-chromen-4-yl]-N′-isoquinolin-5-ylurea] | 19 | 98 | 35
– | – | – | Cc1cc2c(NC(=O)N[C@@H]3CC(CF)(CF)Oc4c(OC(F)(F)F)cccc43)cccc2cn1 [Example 87, N-[(4R)-2,2-bis(fluoromethyl)-8-(trifluoromethoxy)-3,4-dihydro-2H-chromen-4-yl]-N′-(3-methylisoquinolin-5-yl)urea] | 0 | 9 | 25
– | – | – | CC1(C)C[C@@H](NC(=O)Nc2cccc3cnccc23)c2ccccc2O1 [Example 27, N-[(4R)-2,2-dimethyl-3,4-dihydro-2H-chromen-4-yl]-N′-isoquinolin-5-ylurea] | 65 | – | 48
– | – | – | Cc1cc2c(NC(=O)N[C@@H]3CC(C)(C)Oc4cc(F)ccc43)cccc2cn1 [Example 95, N-[(4R)-7-fluoro-2,2-dimethyl-3,4-dihydro-2H-chromen-4-yl]-N′-(3-methylisoquinolin-5-yl)urea] | 0 | 3.5 | 0
– | – | – | Cc1cc2c(NC(=O)N[C@@H]3CC(CF)(CF)Oc4c(F)cc(F)cc43)cccc2cn1 [Example 120, N-[(4R)-6,8-difluoro-2,2-bis(fluoromethyl)-3,4-dihydro-2H-chromen-4-yl]-N′-(3-methylisoquinolin-5-yl)urea] | 25 | 6.2 | 11
– | – | – | Cc1cc2c(NC(=O)N[C@@H]3CC(C)(C)Oc4c(OC(F)(F)F)cccc43)cccc2cn1 [Example 94, N-[(4R)-2,2-dimethyl-8-(trifluoromethoxy)-3,4-dihydro-2H-chromen-4-yl]-N′-(3-methylisoquinolin-5-yl)urea] | 0 | 16 | 5.2
– | – | – | Cc1cc2c(NC(=O)N[C@@H]3C[C@@](C)(CF)Oc4c(F)cccc43)cccc2cn1 [Example 128, N-[(2S,4R)-8-fluoro-2-(fluoromethyl)-2-methyl-3,4-dihydro-2H-chromen-4-yl]-N′-(3-methylisoquinolin-5-yl)urea] | 0 | 0.23 | 9
63 | 100 | 50 | N-[(4R)-6,8-difluoro-2,2-dimethyl-3,4-dihydro-2H-chromen-4-yl]-N′-isoquinolin-5-ylurea [Example 17] | – | – | –
– | – | – | Cc1cc2c(NC(=O)N[C@@H]3CC(CF)(CF)Oc4ccc(F)cc43)cccc2cn1 [Example 65, N-[(4R)-6-fluoro-2,2-bis(fluoromethyl)-3,4-dihydro-2H-chromen-4-yl]-N′-(3-methylisoquinolin-5-yl)urea] | 0.57 | 12 | 0
– | – | – | Cc1cc2c(NC(=O)N[C@@H]3CC(CF)(CF)Oc4ccccc43)cccc2cn1 [Example 101, N-[(4R)-2,2-bis(fluoromethyl)-3,4-dihydro-2H-chromen-4-yl]-N′-(3-methylisoquinolin-5-yl)urea] | – | 11 | 11
– | – | – | Cc1cc2c(NC(=O)N[C@@H]3CC(CF)(CF)Oc4cc(Cl)ccc43)cccc2cn1 [Example 84, N-[(4R)-7-chloro-2,2-bis(fluoromethyl)-3,4-dihydro-2H-chromen-4-yl]-N′-(3-methylisoquinolin-5-yl)urea] | – | 49 | 3.7
– | – | – | CC1(C)C[C@@H](NC(=O)Nc2cccc3cnccc23)c2ccc(F)cc2O1 [Example 23, N-[(4R)-7-fluoro-2,2-dimethyl-3,4-dihydro-2H-chromen-4-yl]-N′-isoquinolin-5-ylurea] | 69 | – | 56
